In PMC9570267, “A Computational QSAR, Molecular Docking and In Vitro Cytotoxicity Study of Novel Thiouracil-Based Drugs with Anticancer Activity against Human-DNA Topoisomerase II” (International Journal of Molecular Sciences, 2022):

Biological target: T1, topoisomerase I (Homo sapiens, UniProt P11387)
T1 construct: gene TOP1
T1 sequence (P11387 2-765): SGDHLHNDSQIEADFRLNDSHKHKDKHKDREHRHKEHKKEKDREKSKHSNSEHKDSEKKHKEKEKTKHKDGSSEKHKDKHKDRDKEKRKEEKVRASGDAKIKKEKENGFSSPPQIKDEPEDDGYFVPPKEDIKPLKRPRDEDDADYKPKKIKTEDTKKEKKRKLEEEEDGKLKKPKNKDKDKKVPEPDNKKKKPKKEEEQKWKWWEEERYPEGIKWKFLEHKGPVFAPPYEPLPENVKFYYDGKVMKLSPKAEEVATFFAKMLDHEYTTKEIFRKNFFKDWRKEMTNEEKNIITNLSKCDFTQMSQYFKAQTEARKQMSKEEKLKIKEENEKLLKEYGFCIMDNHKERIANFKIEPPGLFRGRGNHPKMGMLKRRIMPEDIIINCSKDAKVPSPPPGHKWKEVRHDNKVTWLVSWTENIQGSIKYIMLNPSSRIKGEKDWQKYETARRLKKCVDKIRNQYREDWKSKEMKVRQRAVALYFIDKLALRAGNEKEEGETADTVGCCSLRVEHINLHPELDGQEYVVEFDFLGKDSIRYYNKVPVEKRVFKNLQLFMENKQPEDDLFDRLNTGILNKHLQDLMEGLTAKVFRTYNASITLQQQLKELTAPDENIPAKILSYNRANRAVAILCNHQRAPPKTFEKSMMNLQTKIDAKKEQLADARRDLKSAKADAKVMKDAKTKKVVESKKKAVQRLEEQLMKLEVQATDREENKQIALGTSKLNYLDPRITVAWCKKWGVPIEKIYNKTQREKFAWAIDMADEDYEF
Test: supercoiled plasmid DNA relaxation gel assay (TopoGEN topo I kit)
Format: biochemical

Row | IC50 [µM] | SMILES
1 | 30.9 ± 1.49 | COc1ccc(C2C3=C(Nc4[nH]c(=S)[nH]c(=O)c42)c2ccccc2C3=O)cc1 (centres unmarked) [7H]
2 | 38.8 ± 2.27 | CN(C)c1ccc(C2C3=C(Nc4[nH]c(=S)[nH]c(=O)c42)c2ccccc2C3=O)cc1 (centres unmarked) [9H]
